One data set has as its target T1, hMCHR1 (Homo sapiens, UniProt Q99705).
T1 construct: purchased PerkinElmer, Inc., Waltham, USA; host or cells: CHO-K1 cell membranes
The experiment in a line: Competitive binding studies: displacement of specific [125I]MCH binding on CHO-K1 cell membranes. The conditions noted are these: for binding cooperativity (from Hill slope factor) / Hill slope factor: displacement of [125I]MCH; for binding cooperativity (from Hill slope factor): CHO-K1 cell membranes expressing hMCHR1.

The target in data set [1] is T2, MCHR1 (Rattus norvegicus, UniProt P97639).
T2 construct: Small-animal PET/MRI brain scans in healthy rats evinced high radiotracer uptake in the entire ventricular system; from tissue; host or cells: brain (whole brain, ventricular system) of male Sprague-Dawley rats, in vivo / ex vivo
T2 sequence (P97639 whole entry): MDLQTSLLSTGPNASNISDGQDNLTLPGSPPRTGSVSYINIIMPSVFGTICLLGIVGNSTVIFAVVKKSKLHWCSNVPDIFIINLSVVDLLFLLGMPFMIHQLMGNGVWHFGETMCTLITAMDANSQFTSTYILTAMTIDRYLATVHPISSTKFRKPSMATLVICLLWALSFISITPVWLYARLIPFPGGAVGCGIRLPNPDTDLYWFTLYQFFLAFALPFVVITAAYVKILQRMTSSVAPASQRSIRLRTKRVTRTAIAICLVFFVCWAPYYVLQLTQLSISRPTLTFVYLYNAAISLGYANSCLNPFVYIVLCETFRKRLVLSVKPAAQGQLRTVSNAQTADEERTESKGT
Kind of data set: Small-animal PET/CT/MRI brain imaging, radiotracer uptake (SUV) under baseline and displacement conditions. It is filed as in vivo. Here is the method:
Twelve-weeks old male Sprague-Dawley rats (HIM:OFA, Himberg, Austria) weighing 389 ± 86 g were kept under controlled environmental conditions (22 ± 1 °C; 40–70% humidity; 12 hours light/dark cycle) with free access to water and standard laboratory animal diet (sniff R/M-H, sniff Spezialdiaeten GmbH, Soest, Germany). Prior to each experiment, the animals were placed into an induction chamber and anesthetized with 2.5% isoflurane. When unconscious, the animals were taken from the chamber and kept under anesthesia with 1.5–2.5% isoflurane provided via a mask during the whole experiment. Physiological parameters and the depth of anesthesia were monitored continuously. Administration of radioligands and MCHR1 antagonists were performed intravenously via the lateral tail vein. All procedures and protocols using animals have been approved by the Institutional Animal Care and Use Committee of the Medical University of Vienna, Austria, as well as by the Austrian Ministry of Science, Research and Economy (BMWFW-66.009/0029-WF/V/3b/2015). Every effort was made to minimize both, the suffering and the number of animals. All experimental procedures and protocols used in this study were performed in accordance with the relevant guidelines and regulations.
(§1) Anaesthetized rats were immobilized in a multimodal animal carrier unit (MACU; medres® – medical research GmbH, Cologne, Germany) and maintained at a body temperature of 37 °C throughout the whole experiment. Animals received either [^11C]SNAP-7941 or [^18F]FE@SNAP, followed by an injection of (±)-SNAP-7941 (15 mg/kg body weight, freshly dissolved in 400 µL; displacement condition; n = 3) or 400 µL of the respective solvent (vehicle condition; n = 3). The MCHR1 antagonists and the vehicle were administered either 15 min ([^11C]SNAP-7941) or 20 min ([^18F]FE@SNAP) after radiotracer injection as a bolus via the lateral tail vein. A stereotactic holder attached to the MACU was used to fix the head of the animals in a reliable and reproducible position within the whole imaging study. Experiments were initiated with a 7 minute cone beam attenuation CT (CBCT) of the brain (360 projections; binning 4 × 4; 80 kV; 500 µA; 200 ms exposure time) using a small-animal CT scanner (Siemens Inveon microSPECT/CT, Siemens Medical Solutions, Knoxville, USA). Subsequently the animals were positioned in the imaging chamber of a Siemens Inveon microPET scanner (Siemens Medical Solution, Knoxville, USA). [^11C]SNAP-7941 (75.85 ± 5.80 MBq; molar activity: 33.12 ± 25.73 GBq/µmol; radiochemical purity: >99%) or [^18F]FE@SNAP (44.12 ± 4.41 MBq; molar activity: 22.18 ± 9.72 GBq/µmol; radiochemical purity: >90%) was injected (200–800 µL) via the lateral tail vein and dynamic PET imaging was performed 45 min for the [^11C]-labeled radiotracer and 60 min for the [^18F]-labeled ligand. Immediately afterwards, T1-weighted high-resolution axial, coronary and sagittal brain MRI scans (2D FLASH; echo time: 3.85 ms; repetition time: 282 ms; flip angle: 30°; field of view: 35 × 35 mm; resolution: 68 × 68 µm; slice thickness: 0.4 mm) were performed using a Bruker BioSpec 94/30 USR small-animal MR system (Bruker BioSpin GmbH, Karlsruhe, Germany). At the end of the imaging study animals were sacrificed under anesthesia through an intravenous injection of pentobarbital sodium (Release® 300 mg/mL, WDT, Garbsen, Germany), brains were removed, weighed and subjected to radioactivity measurements in a Gamma Counter (2480 WIZARD[2], PerkinElmer, Waltham, MA, USA). Values were normalized to weight and dose and expressed as the percentage injected dose per gram of tissue (%ID/g).
CT raw data was reconstructed with a Feldkamp algorithm using a Shepp-Logan filter followed by standard rat beam-hardening correction and noise reduction (matrix size: 1024 × 1024; effective pixel size: 97.56 µm). […]

Data set [2] concerns the target T2, MCHR1. Kind of data set: Ex-vivo brain uptake measured in the Gamma Counter. The conditions noted are these: mean ± SEM. How it is done:
as §1

Data set [3] concerns P-glycoprotein (P-gp) and Breast Cancer Resistance Protein (BCRP). Set-up: method as in PMID 23829932. The conditions noted are these: due to binding to P-gp and BCRP; cited from earlier work.
Details of data set [4]: method as in PMID 24106662. The conditions noted are these: cited from earlier work.
The mark [5] stands for this setting: CHO-K1 cell membranes expressing hMCHR1, mean ± SEM.
Setting [6] is: displacement of 0.1 nM [125I]MCH, CHO-K1 cell membranes expressing hMCHR1, Cheng Prusoff, mean ± SEM.
Where [7] appears, read: displacement of 0.1 nM [125I]MCH, CHO-K1 cell membranes expressing hMCHR1, mean ± SEM, three independent experiments.
Setting [8] is: i.v. tracer, before displacement, group displaced with 15 mg/kg (±)-SNAP-7941, mean ± SEM.
Setting [9] is: i.v. tracer, before displacement, group displaced with vehicle, mean ± SEM.
The mark [10] stands for this setting: male, Sprague-Dawley, in vivo, iv.
The mark [11] stands for this setting: male, Sprague-Dawley, in vivo, iv, 15 mg/kg.
Setting [12] is: group with displacement via (±)-SNAP-7941 (15 mg/kg).

Structures can show the parent of a compound that is named as a salt. Where two headings read alike, the source gives them in different places.

T1 sequence (Q99705 whole entry): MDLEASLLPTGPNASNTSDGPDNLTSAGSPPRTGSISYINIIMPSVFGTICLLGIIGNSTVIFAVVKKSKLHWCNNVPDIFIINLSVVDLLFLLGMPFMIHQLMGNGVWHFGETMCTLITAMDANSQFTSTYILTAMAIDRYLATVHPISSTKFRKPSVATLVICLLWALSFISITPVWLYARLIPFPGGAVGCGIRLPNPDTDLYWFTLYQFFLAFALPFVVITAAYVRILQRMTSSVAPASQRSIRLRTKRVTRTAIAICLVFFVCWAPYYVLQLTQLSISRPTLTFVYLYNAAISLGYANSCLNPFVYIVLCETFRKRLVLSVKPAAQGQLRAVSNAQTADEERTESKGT
Description for hMCHR1: Competitive binding studies were conducted on CHO-K1 cell membranes expressing the hMCHR1 (PerkinElmer, Inc., Waltham, USA). Briefly, cell membranes (10 µg/mL) were dissolved in 500 µL 50 mM Tris buffer (pH 7.4) (containing 10 mM MgCl2, 2 mM EDTA, 0.1% bacitracin and 0.2% BSA). […] All non-labelled compounds were initially dissolved in DMSO and diluted with deionized water to the final concentration, where the amount of DMSO never exceeded 5%. The membranes were incubated in vials at room temperature for 120 min. Subsequently, bound and free fractions of radioligand were separated by centrifugation at 40 000 × g for 20 min. The supernatants were removed into new vials and pellets were washed twice with 800 µL ice cold Tris buffer. The pellets were finally dissolved in 1300 µL Tris buffer and the radioactivity of both, the supernatant and the pellet, was measured in a Gamma Counter (2480 WIZARD[2], PerkinElmer, Waltham, MA, USA). The half-maximum inhibitory concentration (IC50) was determined using GraphPad Prism 6.0 (GraphPad Software, Inc., San Diego, CA, USA) and converted into the Ki using the Cheng Prusoff equation[38].

In the case of `COCC1=C(C(=O)OC)[C@H](c2ccc(F)c(F)c2)N(C(=O)NCCCN2CCC(c3cccc(NC(C)=O)c3)CC2)C(=O)N1` [(+)-SNAP-7941, (+)-methyl(4 S)-3-{[(3-{4-[3-(acetylamino)phenyl]-1piperidinyl}propyl)amino]carbonyl}-4-(3,4-difluorophenyl)-6-(methoxymethyl)-2-oxo-1,2,3,4-tetra-hydro-5-pyrimidenecarboxylate hydrochloride], at hMCHR1, the IC50 (in general, the point on the concentration scale where inhibition reaches its midpoint) worked out at 7.7 ± 0.35 nM; the affinity corresponds to a Ki of 5.37 ± 0.25 nM; the “binding cooperativity (from Hill slope factor)” value was “strong positive cooperativity”. This compound also displayed a Hill slope factor at hMCHR1 (setting [5]) of 8.89 ± 1.59.

With `COCC1=C(C(=O)OC)[C@H](c2ccc(F)c(F)c2)N(C(=O)NCCCN2CCC(c3cccc(NC(C)=O)c3)CC2)C(=O)N1` (racemic) [(±)-SNAP-7941], the affinity at hMCHR1 (setting [6]) corresponds to a Ki of 3.91 ± 0.74 nM. Further, the concentration for half-maximal inhibition (IC50) at hMCHR1 (setting [7]) stood at 5.61 ± 1.06 nM. In addition, at hMCHR1, the “binding cooperativity (from Hill slope factor)” value is listed as “no binding cooperativity”. Moreover, on hMCHR1 (setting [5]), the Hill slope factor came to 2.66 ± 0.39.

Consider `COCC1=C(C(=O)OCCF)[C@H](c2ccc(F)c(F)c2)N(C(=O)NCCCN2CCC(c3cccc(NC(C)=O)c3)CC2)C(=O)N1` [FE@SNAP, (+)-(2-Fluoroethyl)(4 S)-3-{[(3-{4-[3-(acetylamino)phenyl]-1-piperidinyl}propyl)amin]carbonyl}-4-(3,4-difluorophenyl)-6-(methoxymethyl)-2-oxo-1,2,3,4-tetra-hydro-5-pyrimidenecarboxylate], for which the affinity at hMCHR1 (setting [6]) corresponds to a Ki of 9.98 ± 1.12 nM. Moreover, the IC50 on hMCHR1 (setting [7]) is 14.3 ± 1.61 nM. The “binding cooperativity (from Hill slope factor)” value on hMCHR1 is on record as “no binding cooperativity”. This compound gave a Hill slope factor on hMCHR1 (setting [5]) of 1.30 ± 0.33.

For the compound `COCC1=C(C(=O)O[11CH3])[C@H](c2ccc(F)c(F)c2)N(C(=O)NCCCN2CCC(c3cccc(NC(C)=O)c3)CC2)C(=O)N1` [[^11C]SNAP-7941], the “SUVbw whole brain, baseline” value on MCHR1 [1] (setting [8]) is 0.41 ± 0.03 g/mL; on MCHR1 [1] (setting [9]), 0.35 ± 0.03 g/mL. For the same compound, the “SUVbw ventricular system, baseline” value is 0.65 ± 0.04 g/mL at MCHR1 [1] (setting [9]) and 0.64 ± 0.08 g/mL at MCHR1 [1] (setting [10]). Also, the entries for the “SUVbw ventricular system, displacement” value on MCHR1 [1] (setting [10]) and on MCHR1 [1] (setting [11]) were 0.71 ± 0.04 g/mL and 0.32 ± 0.04 g/mL, respectively. In addition, the “SUVbw whole brain, displacement” value on MCHR1 [1] (setting [10]) came out at 0.34 ± 0.02 g/mL; at MCHR1 [1] (setting [11]) it was 0.31 ± 0.03 g/mL. The “Ex-vivo brain uptake, normalized value” on MCHR1 [2] (setting [12]) was determined as 0.015 ± 0.002 %ID/g; on MCHR1 [2] (vehicle group) it was 0.023 ± 0.002 %ID/g. Moreover, in data set [3], the blood-brain-barrier penetration result is “limited blood-brain-barrier penetration”.

For `COCC1=C(C(=O)OCC[18F])[C@H](c2ccc(F)c(F)c2)N(C(=O)NCCCN2CCC(c3cccc(NC(C)=O)c3)CC2)C(=O)N1` [[^18F]FE@SNAP], the “SUVbw whole brain, baseline” value at MCHR1 [1] (setting [8]) is 0.41 ± 0.01 g/mL; at MCHR1 [1] (setting [9]), 0.43 ± 0.02 g/mL. The “SUVbw ventricular system, baseline” value on MCHR1 [1] (setting [9]) stood at 0.72 ± 0.01 g/mL; on MCHR1 [1] (setting [10]) it was 0.69 ± 0.06 g/mL. In addition, the “SUVbw ventricular system, displacement” value stood at 0.73 ± 0.02 g/mL at MCHR1 [1] (setting [10]) and 0.50 ± 0.04 g/mL at MCHR1 [1] (setting [11]). Further, the “SUVbw whole brain, displacement” value at MCHR1 [1] (setting [10]) amounted to 0.44 ± 0.02 g/mL; at MCHR1 [1] (setting [11]), 0.41 ± 0.02 g/mL. Further, the “Ex-vivo brain uptake, normalized value” on MCHR1 [2] (setting [12]) is 0.018 ± 0.003 %ID/g; at MCHR1 [2] (vehicle group), 0.020 ± 0.001 %ID/g. Also, the metabolism result in data set [4] is reported as “fast metabolism”.

(Values after paper PMC5556108, “In vivo evaluation of radiotracers targeting the melanin-concentrating hormone receptor 1: [^11C]SNAP-7941 and [^18F]FE@SNAP reveal specific uptake in the ventricular system” (Scientific Reports, 2017).)
